Test results from patent US7557088B2, “Methods and compositions for treating conditions” (NeoPro Labs, LLC, priority 2006, dated 2009).
“And” between values parts separate entries of the source, which are not always exact repeats. Identical values can stand only once. Residues, ends and D or L forms follow the SMILES beside them. No end group written: not given here.

Experiments:
[1] = test system: Pseudomonas syringae pv tomato, DC3000; test: systemic resistance of Arabidopsis plants to a virulent bacterial pathogen; type: in vivo, Arabidopsis ecotype Columbia (Col-0); conditions: 20 μl salicylic acid 1 mM and 20 μl SEQ ID NO: 15 applied to the leaves
Experimental: Seeds of Arabidopsis ecotype Columbia (Col-0) were planted in potting soil. Plants were cultivated in a growth chamber with 10-h d (200 μmol m^−2s^−1 at 22° C.) and 14-h night (18° C.) cycles and 80% RH. Once a week plants were supplied with water and modified one-half strength Hoagland nutrient solution: 2 mM KNO 5 mM Ca(NO3)2 and trace elements, pH 7.
A virulent plant pathogen, Pst Pseudomonas syringae pv tomato, DC3000 was grown at 28° C. on King's medium B containing 40 mg/L tetracycline. Plants were inoculated with 1×10^7 cfu/ml of the pathogen in 0.01% Silwet L77 (v/v) (a surfactant) and distilled water 5 weeks after sowing. The bacterial suspension or a control solution (0.01% Silwet L77 in water) was then sprayed on the plant once.
Disease symptoms in Arabidopsis are water-soaked, spreading lesions, sometimes surrounded by chlorotic margin that eventually lead to yield loss and plant death.
To test the efficacy of SEQ ID NO: 15, some healthy and some disease plants were sprayed with salicylic acid in 0.01%. Silwet L77; some healthy and some disease plants were sprayed with SEQ ID NO: 15 in 0.01%. Silwet L77, and some healthy and some disease plants were sprayed with salicylic acid in combination with SEQ ID NO: 15 in 0.01%. Silwet L77. A control group of some healthy and some disease plants were sprayed with water in 0.01%. Silwet L77. […]

[2] = test system: post-surgical pain in rats; test: oral administration, von Frey withdrawal response after plantar incision; type: in vivo; conditions: for Withdrawal Response Post-Dose / Post-Dose change of pain threshold (arrow): morphine sulfate 3.7 mg/kg; for Withdrawal Response Post-Dose: peptides 100 mg/kg; for Withdrawal Response Post-Surgery: 150 min after surgery, before dosing; for Post-Dose change of pain threshold (arrow): peptides 100 mg/kg oral; for Withdrawal Response Pre-Surgery: baseline 15 min pre-surgery; for effect when administered with aspirin / effect when administered with Naloxone / effect on pain threshold: oral; for effect when administered with aspirin: ASA 1 mg/kg co-administered (Groups 4, 6, 9); for effect when administered with Naloxone: Naloxone 2 mg/kg co-administered (Groups 3, 5, 8); for effect on pain threshold: with 0.9% saline as Treatment 1 (Groups 2, 7, 10)
Excerpt: Table VI below illustrates results from the oral administration of SEQ ID NO: 1 and SEQ ID NO: 153 and the effects of Naloxone and aspirin on their ability to decrease the pain threshold.
In this experiment animals were weighed and placed in the group numbers designated on the left hand column. Each group is composed of 10 rats. Animals were anesthetized with 1.8 to 4% isofluorane (delivered via a nose cone) and each received an intramuscular injection of penicillin (30,000 IU) in the triceps muscle after preparation of the foot with betadine and alcohol (SOPs VET-1 and VET-8). A 1 cm long incision of skin and fascia was made in the plantar aspect (heel, midfoot or distal pad area) of the right hind paw. No underlying muscle was incised. After hemostasis with gentle pressure, the incision was closed with one or two sutures (5-0 silk/nylon ophthalmic suture on a taper TF needle or equivalent). The wound site was covered with a mixture of polymixin B, neomycin, and bacitracin ointment. After surgery, rats were allowed to recover in their cages until behavioral testing. Prior to surgery, rats were placed individually on an elevated wire mesh floor covered with a clear plastic cage top and allowed to acclimate. Baseline pain behavior was measured as follows: Withdrawal responses to mechanical stimulation were determined using von Frey filaments applied from underneath the cage through openings (12×12 mm in the plastic mesh floor to an area adjacent to the intended incision). Each von Frey filament (Target force of 0.008 g to 300 g) was applied once starting with 0.008 g filament and continuing until a withdrawal response occurred or 300 g force was reached. The median force producing a response, determined from three tests given over a 10-min period was considered the withdrawal threshold. Rats were tested for responses 15 minutes pre-surgery, 150 minutes after surgery, and 20 minutes after treatment. Oral treatments 1 and 2 were co-administered 180 minutes after surgery. The test article/vehicle administration and pain measurements were as per Table below.
As illustrated by Table VI, SEQ ID NOs: 1 and 153 attenuate sensitization to von Frey mechanical stimuli after oral application. The response to the von Frey monofilament is in gram. Arrow up (1) indicates an increase in the pain threshold and arrow down (1) indicates a decrease in the threshold. Zero indicates no change.

[3] = test system: opioid receptor; test: mechanism of action with Naloxone, antagonist of the opioid receptors (oral pain study); set-up: species or system rats; conditions: inferred from in vivo Naloxone co-administration, no binding test
Experimental: When Naloxene was administered with SEQ ID NO: 153 (Group 8), the effects of SEQ ID NO: 153 were reduced (compare Group 8 to Group 10) but unlike the case of Morphine (Group 3), not completely eliminated.

[4] = test system: Sauromatum guttatum appendix; test: heat production by Sauromatum guttatum appendix sections treated with 2,6-dihydroxybenzoic acid (2,6-DHBA); conditions: second experiment, application up to 50 μM, data not shown
Experimental: In one example, using Sauromatum guttatum as the experimental module, on the day of inflorescence-opening, the Sauromatum appendix (a 20-40 cm-long, slender organ) becomes warm, reaching a 32° C. temperature (Skubatz et al., 1991, Plant Physiol. 95-1084-1088). The heat generated by the appendix is generated by the mitochondria. This mitochondrial activity can be triggered by the addition of phenolic compounds, including but not limited to, salicylic acid, aspirin, and 2,6-dihydroxybenzoic acid. Test agents can be applied to the plant and the plant's temperature may be monitored in vivo.
FIG. 6 illustrates modulation of heat generated by 2,6-dihydroxybenzoic acid in the presence of the Alzheimer's peptide, Aβ 1-42, SEQ ID NO: 49 and a plant gene derived sequence in the Sauromatum guttatum appendix. One day before heat-production, sections of the appendix were placed in different solutions containing 2,6-dihydroxybenzoic acid (2,6-DHBA) with or without SEQ ID NO: 2 (FLPSEFGVDVDR) and SEQ ID NO: 51. Heat-production was monitored with thermocouples attached to the sections. A section placed in distilled water that was not generated any heat is the control (water). […] The temperature was recorded every 5 min. […] This figure illustrates that these peptides modulate thermogenicity in plants as well as animals and act as mitochondrial modulators.

[5] = solubility of test article in 0.9% saline; type: physicochemical; conditions: 100 mg/mL: 1.4 mL of saline added to 141.5 mg, room temperature
Experimental: The test article was SEQ ID NO: 1, a white powder, which was delivered in 0.9% saline. The test article formulations were prepared on the day of study and kept at room temperature until dosing. 100 mg/kg at 1 mL/kg=100 mg/mL 1.4 mL of saline added to 141.5 mg of test article, soluble.

[6] = feeding behavior of rats exposed to high levels of the peptide; type: in vivo; conditions: at least 3 days
Excerpt: Pain is basically managed by two classes of drugs. […] The peptide has no anti-inflammatory properties and this differentiates it pharmacologically from analgesics in the NSAID's.

[7] = 20 min after oral treatment, co-administered ASA 1 mg/kg
[8] = 20 min after oral treatment, co-administered Naloxone 2 mg/kg
[9] = group later given Treatment 1 0.9% Saline + Treatment 2
[10] = group later given Treatment 1 ASA 1 mg/kg + Treatment 2
[11] = group later given Treatment 1 Naloxone 2 mg/kg + Treatment 2
[12] = group later given Treatment 1 0.9% Saline 2 mL/kg + oral Treatment 2 (morphine sulfate 3.7 mg/kg or peptide 100 mg/kg)
[13] = co-administered Naloxone 2 mg/kg

| Compound | systemic resistance to the virulent bacteria [1] | Withdrawal Response Post-Dose [2, 7] | Withdrawal Response Post-Dose [2, 8] | Withdrawal Response Post-Surgery [2, 9] | Withdrawal Response Post-Surgery [2, 10] | Withdrawal Response Post-Surgery [2, 11] | Withdrawal Response Pre-Surgery [2, 12] | Withdrawal Response Pre-Surgery [2, 10] | Withdrawal Response Pre-Surgery [2, 11] | Post-Dose change of pain threshold (arrow) [2, 13] | effect when administered with aspirin [2] | effect when administered with Naloxone [2] | effect on pain threshold [2] | other results |
| --- | --- | --- | --- | --- | --- | --- | --- | --- | --- | --- | --- | --- | --- | --- |
| O=C(O)c1ccccc1O [salicylic acid] | enough to trigger systemic resistance | – | – | – | – | – | – | – | – | – | – | – | – | – |
| YGGFL [SEQ ID NO: 15] | enough to trigger systemic resistance | – | – | – | – | – | – | – | – | – | – | – | – | – |
| SPLF [SEQ ID NO: 153] | – | 5.7 g and 5.7 ± 0.56 g | 4.7 ± 0.45 g | 4.5 g and 4.5 ± 0.32 g | 4.7 ± 0.56 g | 4.5 ± 0.55 g | 28.1 ± 3.02 g | 29.2 ± 3.21 g | 29.3 ± 4.00 g | 0 | improved effect | reduced | increases the pain threshold | Withdrawal Response Post-Dose ([2]; 20 min after oral treatment at 180 min after surgery, Treatment 1 0.9% Saline 2 mL/kg): 5.0 g and 5.0 ± 0.41 g; Post-Dose change of pain threshold (arrow) ([2]; Treatment 1 0.9% Saline 2 mL/kg): 0; binding to the opioid receptor relative to Morphine and Naloxone [3]: binds to the opioid receptor more tightly than Morphine, but less tightly than Naloxene |
| FLPSEFGVDVDR [SEQ ID NO: 2] | – | – | – | – | – | – | – | – | – | – | – | – | – | heat generation by the peptide [4]: did not generate heat |
| CN1CC[C@]23c4c5ccc(O)c4O[C@H]2[C@@H](O)C=C[C@H]3[C@H]1C5.O=S(=O)(O)O [Morphine sulfate, reference compound] | – | 5.5 ± 0.80 g | 3.5 ± 0.24 g | 3.8 ± 0.52 g | 4.3 ± 0.41 g | 3.7 ± 0.39 g | 30.4 ± 3.29 g | 21.9 ± 2.13 g | 28.5 ± 4.53 g | 0 | aspirin reduced the effects of Morphine | the effect of Morphine is eliminated | the pain threshold is increased | Withdrawal Response Post-Dose ([2]; 20 min after oral treatment at 180 min after surgery, Treatment 1 0.9% Saline 2 mL/kg, listed as Morphine, sulfate): 6.6 g; Withdrawal Response Post-Dose ([2]; 20 min after oral treatment at 180 min after surgery, Treatment 1 0.9% Saline 2 mL/kg, sulfate): 6.6 ± 1.58 g |
| CC(C)C[C@H](NC(=O)[C@@H](N)Cc1ccccc1)C(=O)N1CCC[C@H]1C(=O)N[C@@H](CO)C(=O)O [SEQ ID NO: 1, Phe-Leu-Pro-Ser] (H-FLPS-OH; N-terminus and C-terminus assumed) | – | – | – | – | – | – | – | – | – | – | – | – | – | solubility in saline [5]: soluble; feeding behavior [6]: did not invoke an abnormal feeding behavior |
